pKi: −log10 of the molar value.
How the values were obtained:
[1] = tested on: one-step RT-PCR with MMLV-RT and SuperTaq, target hGAPDH; test: One-step qRT-PCR tolerance, hGAPDH; format: biochemical
Protocol: To evaluate the compatibility of Benzopurpurin B and 4B in RT-PCR applications, 100 nM, 1 uM, 10 uM, and 25 uM were tested in Ambion's MessageSensor RT-PCR Kit using the supplier's instructions and using primers/probe designed to amplify a 226 nt amplicon from the human GAPDH mRNA. Reaction conditions: 20-ul one-step RT-PCR with MMLV-RT (0.4 U/ul final) and SuperTaq (0.04 U/ul final). Cycling conditions: Stage 1. 42 C for 15 minutes, Stage 2. 95 C for 5 min, Stage 3. 95 C-15 sec and 60 C-60 sec, where Stage 3 is repeated 40 times. […] The compound was tolerated at 10 uM or lower with no significant loss of sensitivity (Table 16).

E. coli RNase I = E. coli RNase I (Escherichia coli, UniProt P21338); test: Intactness of total RNA (RNA LabChip), E. coli RNase I; format: biochemical; details: 100 uM BpB, 7 ng/ul E. coli RNase I
[2] = target: eosinophil-derived neurotoxin (EDN) (Homo sapiens, UniProt P10153); test: Intactness of total RNA (RNA LabChip), EDN; format: biochemical; details: 100 uM BpB, 1 ng/ul EDN
diluted pancreas lysate = test: Intactness of total RNA (RNA LabChip), diluted pancreas lysate; format: biochemical, mouse; details: pancreas lysate 1:20,000, 23 C 4 min
Protocol: (§1) A total of 100 pg/ul e. […].
Pancreatic lysate (0.1 mg/ml) was diluted 1:20,000 in 24 mM Hepes, pH 7.2, 50 mM NaCl, 1 mM MgCl2 and pre-incubated with either 1% SDS or 6.25 mM OVA for 30 s prior to the addition of 2 ug mouse liver total RNA. Reactions were incubated at 25 C for an additional 4 min, quenched, and analyzed on an RNA LabChip.
(§2) Mouse pancreatic tissue (5 mg) was disrupted in 50 ul of 24 mM Hepes, pH 7.2, 50 mM NaCl, 1 mM MgCl2. The diluted lysate (1:20,000) was pre-incubated with 50 uM Benzopurpurin B (BpB) for 30 sec and then added to 100 ng/ul mouse liver total RNA (Ambion) and incubated at 23 C for an additional 4 min. Samples were quenched in a guanidinium lysis buffer, and the RNA purified via MEGAclear™ MAG-96 and eluted with 20 ul nuclease-free water. […] These experiments were conducted in the same fashion except that 100 uM BpB was employed. The sample (1 ul) was analyzed by 2100 BioAnalyzer software (Agilent) after separation on an RNA LabChip.
Mouse pancreatic tissue (5 mg) was dounced in 50 ul of 24 mM Hepes, pH 7.2, 50 mM NaCl, 1 mM MgCl2. A diluted lysate (1:20,000) was pre-incubated with 100 uM BpB or the analog Benzopurpurin 4B (Bp4B) for 30 sec and then added to 100 ng/ul mouse liver total RNA (Ambion) and incubated at 23 C for an additional 4 min. Samples were quenched in a guanidinium lysis buffer, and the RNA purified via MEGAclear™ MAG-96 and eluted with 20 ul nuclease-free water. The sample (1 ul) was analyzed by 2100 BioAnalyzer software (Agilent) after separation on an RNA LabChip.
(§3) Pancreatic tissue (5 mg) was dounced in 50 ul of 24 mM Hepes, pH 7.2, 50 mM NaCl, 1 mM MgCl2. The lysate was diluted (1:20,000) and then pre-incubated with 200 uM of 467929. […] All samples were pre-incubated for 30 sec before being added to 100 ng/ul mouse liver total RNA (Ambion) and incubated at 23C for an additional 4 min. The RNA was then immediately purified via MEGAclear™ MAG-96 and eluted with 20 ul nuclease-free water. The recovered RNA (1 ul) was analyzed by 2100 BioAnalyzer software after separation on an RNA LabChip.

[3] = target: T1, human pancreatic RNase (HPR) (Homo sapiens, UniProt P07998); test: Intactness of total RNA (RNA LabChip), HPR; format: biochemical; details: 100 uM BpB, 1 ng/ul HPR
T1 sequence (P07998 29-156): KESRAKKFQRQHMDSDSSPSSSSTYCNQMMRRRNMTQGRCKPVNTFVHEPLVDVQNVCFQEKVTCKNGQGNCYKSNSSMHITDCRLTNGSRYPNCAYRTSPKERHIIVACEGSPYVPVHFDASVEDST

DNase I = DNase I (Bos taurus, UniProt P00639); test: Lambda DNA digestion assay with DNase I; format: biochemical; details: 0.02 U DNase I, 1 ug lambda DNA, 10 min at 37C
Text: One application for small molecule RNase inhibitors is as an RNA control agent during enzymatic manipulation of solutions containing RNA. These reactions include in vitro transcription, in vitro translation, DNase digestion, and reverse transcription, among others. […] […] […] All reactions were quenched with EDTA and the cleavage products resolved on a 1% agarose gel.
As a result, compounds such as #467929, 140553, and 180582 may have utility in curbing the activity of residual RNases that may carry over from RNA isolation methods during DNase treatments of the RNA.

bovine RNase A [4] = target: T2, bovine RNase A (Bos taurus, UniProt P61823); test: Intactness of total RNA (RNA LabChip), bovine RNase A; format: biochemical; details: 100 uM BpB, 8.3 pg/ul bovine RNase A
T2 sequence (P61823 27-150): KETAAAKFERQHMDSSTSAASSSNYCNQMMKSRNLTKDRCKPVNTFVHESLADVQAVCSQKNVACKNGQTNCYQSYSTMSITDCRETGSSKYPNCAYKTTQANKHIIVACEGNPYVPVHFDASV
Protocol: as §1, §2, §3

nuclease = nuclease (Homo sapiens, UniProt P03950); test: Ki of Lead 1 and Lead 2 analogs (Tables 1 and 2); format: biochemical; details: Table 1, Lead 1 Analog List
MMLV RT RNase H = MMLV RT RNase H (Moloney murine leukemia virus, UniProt P03355); test: RT-based RNase H cleavage of RNA:DNA hybrid; format: biochemical
Protocol: As described above, Chembridge compound #467929 offered protection from several RNA-specific endonucleolytic activities. […] A 20-mer DNA oligonucleotide was asymmetrically annealed to a 1500 base synthetic RNA to create an RNA:DNA duplex substrate for RNase H. Reactions were initiated with 10 U of MMLV RT in 1× RT buffer (50 mM TrisCl pH 8.3, 75 mM KC, 3 mM MgCl2, 5 mM DTT) containing 500 ng/ul RNA:DNA hybrid. All reactions contained 5% DMSO either with or without the small molecule RNase inhibitor. Samples were incubated for 5 min at 37 C, and quenched with EDTA. Products were resolved on an RNA LabChip. Cleavage products were observed as two equally represented RNA species of 1000 and 500 bases. Product length and yield were determined using the 2100 BioAnalyzer software (Agilent). Table 18 details the level of inhibition of MMLV RT RNase H that is observed as a function of the concentration of compounds 467929 and 227726.

bovine RNase A [5] = target: T2, bovine RNase A; test: Ki determination by Dixon analysis (RNaseAlert); format: biochemical; details: 74 pM RNase A, 40 nM RNaseAlert substrate, pH 7.0
Text: To measure the inhibition constant of compound #467929 against bovine RNase A, Dixon analysis was used to determine the relationship between RNase activity and inhibitor concentration. The […] fluorescence assay (Ambion) was used to quantify RNase activity.

nuclease, sequence (P03950 25-147): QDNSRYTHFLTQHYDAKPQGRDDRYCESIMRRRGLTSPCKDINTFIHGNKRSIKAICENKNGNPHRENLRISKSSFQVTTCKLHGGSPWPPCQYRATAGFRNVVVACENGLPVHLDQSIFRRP
eosinophil-derived neurotoxin (EDN), sequence (P10153 28-161): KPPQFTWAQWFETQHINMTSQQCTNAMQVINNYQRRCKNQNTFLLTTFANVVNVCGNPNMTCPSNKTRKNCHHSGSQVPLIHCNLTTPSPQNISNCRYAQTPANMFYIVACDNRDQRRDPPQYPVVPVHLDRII
DNase I, sequence (P00639 23-282): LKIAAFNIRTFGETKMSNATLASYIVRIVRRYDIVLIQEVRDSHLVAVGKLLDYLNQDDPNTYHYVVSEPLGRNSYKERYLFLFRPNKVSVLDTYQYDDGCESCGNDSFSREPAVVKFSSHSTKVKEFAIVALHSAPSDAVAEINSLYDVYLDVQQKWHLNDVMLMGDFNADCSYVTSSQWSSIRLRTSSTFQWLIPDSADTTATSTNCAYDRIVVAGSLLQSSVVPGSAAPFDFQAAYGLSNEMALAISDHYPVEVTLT
E. coli RNase I, sequence (P21338 24-268): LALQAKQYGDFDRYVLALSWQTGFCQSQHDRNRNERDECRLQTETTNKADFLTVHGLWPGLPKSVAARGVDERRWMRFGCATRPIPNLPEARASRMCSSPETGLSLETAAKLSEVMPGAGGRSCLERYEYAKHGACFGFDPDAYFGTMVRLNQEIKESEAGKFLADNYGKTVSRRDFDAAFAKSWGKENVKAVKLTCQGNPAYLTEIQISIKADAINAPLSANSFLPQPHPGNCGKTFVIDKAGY

Row | Compound | Ct at 50 ng Input RNA ([1]; RT w RIP, inhibitor 1 uM) | Ct at 50 ng Input RNA ([1]; RT w RIP, inhibitor 10 uM) | Ct at 50 ng Input RNA ([1]; RT w RIP, inhibitor 25 uM) | Ct at 50 ng Input RNA ([1]; RT w RIP, inhibitor 100 nm) | Ct at 50 ng Input RNA ([1]; RT without RIP, inhibitor 1 uM) | Ct at 50 ng Input RNA ([1]; RT without RIP, inhibitor 10 uM) | Ct at 50 ng Input RNA ([1]; RT without RIP, inhibitor 25 uM) | Ct at 50 ng Input RNA ([1]; RT without RIP, inhibitor 100 nm) | inhibition of RNase (RNA intactness) (E. coli RNase I) | inhibition of RNase (RNA intactness) [2] | protection of total RNA from degradation (diluted pancreas lysate; 50 uM BpB) | protection of total RNA from degradation (diluted pancreas lysate; 100 uM inhibitor) | inhibition of RNase (RNA intactness) [3] | concentration tolerated with little or no effect on enzymatic DNA cleavage (DNase I) | inhibition of RNase (RNA intactness) (bovine RNase A [4]) | pKi (nuclease) | % Cleavage (MMLV RT RNase H; inhibitor 8 uM, 36 without inhibitor) [%] | % Cleavage (MMLV RT RNase H; inhibitor 40 uM) [%] | pKi (bovine RNase A [5])
1 | Cc1cc(-c2ccc(/N=N/c3c(N)ccc4cc(S(=O)(=O)O)ccc34)c(C)c2)ccc1/N=N/c1c(N)ccc2cc(S(=O)(=O)O)ccc12 [Benzopurpurin B, 3,3′-di-methylbiphenyl-4,4′-bis(2-amino-naphthylazo-6-sulfo-nate)] | 17.66 | 19.27 | undet | 17.27 | 17.35 | 17.96 | undet | 17.39 | effective inhibitor | effective inhibitor | significant protection | significant protection | effective inhibitor | up to 10 uM | effective inhibitor | 5.30 | – | – | –
2 | O=C(Nc1ccc(Cc2ccc(NC(=O)c3cccc([N+](=O)[O-])c3)c(C(=O)O)c2)cc1C(=O)O)c1cccc([N+](=O)[O-])c1 [compound 467929, 3,3′-dicarboxy-4,4′-bis(3-ni-trophenylamido)di-phenylmethane] | – | – | – | – | – | – | – | – | – | – | – | – | – | – | – | – | 42 | 8 | ~4.92
